Experimental data as given in patent US9238074B2, “Crystalline forms of the di-sodium salt of N-(5-chlorosalicyloyl)-8-aminocaprylic acid” (Emisphere Technologies, Inc., priority 2005, dated 2016).

Experiment: Stability of crystalline forms of 5-CNAC (room temperature, humidity, storage)

Structure (SMILES) | form conversion on storage (storage of the mixture of Forms I and IV (Example 5) over time) | stability as a function of relative humidity (relative humidity below about 50%)
O=C([O-])CCCCCCCNC(=O)c1cc(Cl)ccc1[O-].[Na+].[Na+] [Form IV, di-sodium salt of N-(5-chlorosalicyloyl)-8-aminocaprylic acid] | convert to Form I over time on storage | 
O=C([O-])CCCCCCCNC(=O)c1cc(Cl)ccc1[O-].[Na+].[Na+] [Form III, di-sodium salt of N-(5-chlorosalicyloyl)-8-aminocaprylic acid] |  | unstable at a relative humidity below about 50%
